Assays:
lipoamide = compound: NC(=O)CCCCC1CCSS1 [lipoamide]; experiment: thermal stability z-score vs DMSO; higher = more thermally stabilized by treatment; settings: HeLa, lipoamide concentration 100 µM
Protocol: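 Cellular thermal proteome profiling in HeLa cells. Cells were treated with 100 µM lipoamide for 1 h, with or without 1 mM arsenate for a further 1 h, then heated to ten temperatures (37-66.3 °C), and soluble protein was quantified by TMT mass spectrometry relative to 0.1% DMSO controls. The thermal stability score (sum of log2 fold changes minus the abundance score) was transformed to a z-score; mean of n = 3 experiments.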

potassium arsenate = compound: O=[As]([O-])(O)O.[K+] [potassium arsenate]; experiment: as above; settings: HeLa; arsenate concentration 1 mM
Protocol: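 Cellular thermal proteome profiling in HeLa cells treated with 1 mM arsenate for 1 h (DMSO pretreatment), heated to ten temperatures (37-66.3 °C). Soluble protein was quantified by TMT mass spectrometry relative to DMSO controls; the thermal stability score was transformed to a z-score; mean of n = 3 experiments.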

[1] = arsenate co-treatment: 1 mM arsenate 1 h
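Note: each temperature applied for 3 min, abundance score taken as mean log2 fold change at the two lowest temperatures, z-score obtained by mean subtraction and division by SD.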

UniProt Q9NQ88, sequence (Q9NQ88 whole entry): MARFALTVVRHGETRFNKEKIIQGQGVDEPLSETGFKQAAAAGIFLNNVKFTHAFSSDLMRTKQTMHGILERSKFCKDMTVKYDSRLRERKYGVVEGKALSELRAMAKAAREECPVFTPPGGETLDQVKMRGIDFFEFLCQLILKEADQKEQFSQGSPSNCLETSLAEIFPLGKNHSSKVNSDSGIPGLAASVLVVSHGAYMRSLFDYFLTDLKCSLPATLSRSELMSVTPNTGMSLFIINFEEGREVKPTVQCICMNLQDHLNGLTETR
UniProt Q86W42, sequence (Q86W42 whole entry): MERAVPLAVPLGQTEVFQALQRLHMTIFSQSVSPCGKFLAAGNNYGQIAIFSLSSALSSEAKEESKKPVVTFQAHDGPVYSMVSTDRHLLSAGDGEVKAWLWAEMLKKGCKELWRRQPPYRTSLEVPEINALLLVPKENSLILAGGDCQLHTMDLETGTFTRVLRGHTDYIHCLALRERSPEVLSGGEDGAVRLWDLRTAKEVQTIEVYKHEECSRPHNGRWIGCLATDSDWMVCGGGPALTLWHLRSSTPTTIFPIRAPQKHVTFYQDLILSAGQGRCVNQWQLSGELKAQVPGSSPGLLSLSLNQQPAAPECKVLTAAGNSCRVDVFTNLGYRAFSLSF
UniProt Q9Y5L4, sequence (Q9Y5L4 whole entry): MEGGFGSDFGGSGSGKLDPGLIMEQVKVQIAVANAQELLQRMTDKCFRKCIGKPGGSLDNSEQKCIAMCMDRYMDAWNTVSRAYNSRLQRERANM
UniProt Q96CG3, sequence (Q96CG3 whole entry): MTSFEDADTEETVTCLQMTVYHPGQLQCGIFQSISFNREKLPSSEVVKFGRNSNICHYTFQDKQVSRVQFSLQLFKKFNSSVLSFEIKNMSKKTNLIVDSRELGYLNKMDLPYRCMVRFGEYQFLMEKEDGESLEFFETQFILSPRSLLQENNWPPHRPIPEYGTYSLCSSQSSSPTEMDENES
UniProt Q5JTD0, sequence (Q5JTD0 whole entry): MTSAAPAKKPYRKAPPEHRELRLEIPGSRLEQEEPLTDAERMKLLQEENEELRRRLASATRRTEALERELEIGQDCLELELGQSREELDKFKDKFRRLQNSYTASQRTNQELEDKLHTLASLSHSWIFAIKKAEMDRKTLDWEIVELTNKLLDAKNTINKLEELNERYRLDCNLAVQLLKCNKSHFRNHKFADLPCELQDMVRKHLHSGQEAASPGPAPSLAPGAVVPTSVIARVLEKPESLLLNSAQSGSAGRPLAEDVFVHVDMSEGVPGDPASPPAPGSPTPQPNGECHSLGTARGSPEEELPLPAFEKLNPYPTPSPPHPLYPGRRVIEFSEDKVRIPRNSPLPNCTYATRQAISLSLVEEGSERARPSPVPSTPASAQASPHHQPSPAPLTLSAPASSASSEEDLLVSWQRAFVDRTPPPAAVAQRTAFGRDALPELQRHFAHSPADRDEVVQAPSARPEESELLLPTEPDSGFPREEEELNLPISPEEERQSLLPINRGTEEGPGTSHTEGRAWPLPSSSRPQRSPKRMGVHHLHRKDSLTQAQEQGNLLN
UniProt O00142, sequence (O00142 whole entry): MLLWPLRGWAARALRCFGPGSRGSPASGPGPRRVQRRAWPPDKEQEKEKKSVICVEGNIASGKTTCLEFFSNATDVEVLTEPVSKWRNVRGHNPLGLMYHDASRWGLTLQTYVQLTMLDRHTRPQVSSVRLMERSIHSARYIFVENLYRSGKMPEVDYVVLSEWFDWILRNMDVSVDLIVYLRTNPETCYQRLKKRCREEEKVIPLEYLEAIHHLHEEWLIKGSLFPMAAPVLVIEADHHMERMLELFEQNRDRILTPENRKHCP
UniProt O75663, sequence (O75663 whole entry): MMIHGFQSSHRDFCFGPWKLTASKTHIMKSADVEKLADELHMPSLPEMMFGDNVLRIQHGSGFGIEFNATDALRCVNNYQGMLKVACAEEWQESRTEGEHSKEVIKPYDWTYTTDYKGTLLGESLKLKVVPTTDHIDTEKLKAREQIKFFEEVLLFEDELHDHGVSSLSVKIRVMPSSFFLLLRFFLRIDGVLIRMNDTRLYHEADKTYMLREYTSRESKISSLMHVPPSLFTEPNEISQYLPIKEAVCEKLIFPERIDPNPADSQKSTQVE
UniProt Q07157, sequence (Q07157 whole entry): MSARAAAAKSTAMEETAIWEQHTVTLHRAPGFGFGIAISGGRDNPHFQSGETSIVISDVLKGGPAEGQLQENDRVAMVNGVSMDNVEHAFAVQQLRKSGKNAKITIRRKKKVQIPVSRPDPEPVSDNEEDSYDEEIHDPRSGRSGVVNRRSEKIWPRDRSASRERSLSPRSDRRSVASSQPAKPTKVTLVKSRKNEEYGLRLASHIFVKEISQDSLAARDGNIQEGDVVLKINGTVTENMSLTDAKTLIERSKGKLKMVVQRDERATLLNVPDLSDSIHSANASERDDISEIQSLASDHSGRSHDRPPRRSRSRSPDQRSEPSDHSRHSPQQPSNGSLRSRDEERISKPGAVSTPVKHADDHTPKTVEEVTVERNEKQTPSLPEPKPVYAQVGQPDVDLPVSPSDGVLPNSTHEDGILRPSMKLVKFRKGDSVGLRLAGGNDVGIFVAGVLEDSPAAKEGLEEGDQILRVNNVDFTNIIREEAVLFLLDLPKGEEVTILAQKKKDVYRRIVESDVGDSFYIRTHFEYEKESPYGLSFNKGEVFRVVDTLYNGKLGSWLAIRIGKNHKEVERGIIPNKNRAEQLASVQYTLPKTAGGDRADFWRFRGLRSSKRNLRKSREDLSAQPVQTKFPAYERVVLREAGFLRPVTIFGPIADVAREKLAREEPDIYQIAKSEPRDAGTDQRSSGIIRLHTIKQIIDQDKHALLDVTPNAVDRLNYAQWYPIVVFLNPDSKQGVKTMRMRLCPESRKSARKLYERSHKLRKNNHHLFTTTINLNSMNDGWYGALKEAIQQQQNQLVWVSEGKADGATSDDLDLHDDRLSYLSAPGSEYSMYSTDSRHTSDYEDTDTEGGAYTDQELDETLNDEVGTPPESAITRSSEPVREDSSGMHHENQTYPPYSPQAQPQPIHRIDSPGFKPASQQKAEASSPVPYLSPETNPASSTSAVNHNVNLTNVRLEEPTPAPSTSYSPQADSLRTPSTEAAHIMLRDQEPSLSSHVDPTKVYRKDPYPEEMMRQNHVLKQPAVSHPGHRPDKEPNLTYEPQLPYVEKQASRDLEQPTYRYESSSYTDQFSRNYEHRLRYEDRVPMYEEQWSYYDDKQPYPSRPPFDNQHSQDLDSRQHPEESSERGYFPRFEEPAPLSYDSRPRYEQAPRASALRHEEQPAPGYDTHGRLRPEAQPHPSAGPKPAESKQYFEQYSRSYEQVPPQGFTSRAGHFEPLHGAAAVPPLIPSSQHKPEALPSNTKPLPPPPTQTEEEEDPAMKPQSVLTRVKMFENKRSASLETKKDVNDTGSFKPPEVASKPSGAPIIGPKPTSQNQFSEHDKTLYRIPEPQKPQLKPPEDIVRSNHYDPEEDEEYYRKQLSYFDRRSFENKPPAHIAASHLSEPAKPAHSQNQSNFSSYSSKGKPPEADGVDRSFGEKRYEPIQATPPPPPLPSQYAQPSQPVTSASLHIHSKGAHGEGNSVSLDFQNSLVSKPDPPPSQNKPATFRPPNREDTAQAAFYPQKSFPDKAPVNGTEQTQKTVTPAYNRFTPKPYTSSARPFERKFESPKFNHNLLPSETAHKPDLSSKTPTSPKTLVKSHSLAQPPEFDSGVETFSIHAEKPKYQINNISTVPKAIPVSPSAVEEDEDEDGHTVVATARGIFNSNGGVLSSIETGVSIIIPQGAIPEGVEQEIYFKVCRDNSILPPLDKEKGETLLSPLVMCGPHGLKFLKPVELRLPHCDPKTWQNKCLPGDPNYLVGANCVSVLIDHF
UniProt O43615, sequence (O43615 whole entry): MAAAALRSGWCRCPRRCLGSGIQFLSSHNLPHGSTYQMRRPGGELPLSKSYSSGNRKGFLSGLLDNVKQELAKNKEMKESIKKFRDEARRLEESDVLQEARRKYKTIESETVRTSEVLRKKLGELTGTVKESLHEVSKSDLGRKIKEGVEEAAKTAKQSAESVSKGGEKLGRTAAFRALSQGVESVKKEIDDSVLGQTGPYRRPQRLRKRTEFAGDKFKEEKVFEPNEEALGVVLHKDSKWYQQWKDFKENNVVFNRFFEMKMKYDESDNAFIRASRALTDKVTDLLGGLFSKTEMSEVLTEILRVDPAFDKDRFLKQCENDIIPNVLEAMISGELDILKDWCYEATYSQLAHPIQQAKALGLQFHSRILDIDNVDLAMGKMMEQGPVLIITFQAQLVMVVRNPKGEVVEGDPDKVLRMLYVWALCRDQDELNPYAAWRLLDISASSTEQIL
UniProt O60830, sequence (O60830 whole entry): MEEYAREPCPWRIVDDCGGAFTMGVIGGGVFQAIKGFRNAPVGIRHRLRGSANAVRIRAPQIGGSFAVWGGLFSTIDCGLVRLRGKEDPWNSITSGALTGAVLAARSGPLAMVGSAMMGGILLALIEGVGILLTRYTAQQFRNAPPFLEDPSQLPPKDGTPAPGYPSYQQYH
UniProt Q9BU02, sequence (Q9BU02 whole entry): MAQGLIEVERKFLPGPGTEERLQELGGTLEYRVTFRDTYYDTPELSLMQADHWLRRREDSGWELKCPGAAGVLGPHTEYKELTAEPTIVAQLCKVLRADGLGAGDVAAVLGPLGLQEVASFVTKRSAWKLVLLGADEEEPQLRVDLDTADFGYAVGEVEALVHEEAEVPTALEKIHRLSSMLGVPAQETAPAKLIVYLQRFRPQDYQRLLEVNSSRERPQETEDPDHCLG
UniProt Q9BVV7, sequence (Q9BVV7 whole entry): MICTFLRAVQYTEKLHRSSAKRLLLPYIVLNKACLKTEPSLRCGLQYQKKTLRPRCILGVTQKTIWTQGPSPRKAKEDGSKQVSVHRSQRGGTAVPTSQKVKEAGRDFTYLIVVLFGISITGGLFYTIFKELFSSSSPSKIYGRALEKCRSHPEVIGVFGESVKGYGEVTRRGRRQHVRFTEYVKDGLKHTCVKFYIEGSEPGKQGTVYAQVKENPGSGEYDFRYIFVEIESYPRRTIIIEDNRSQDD

Target	thermal stability z-score (lipoamide; [1])	thermal stability z-score (lipoamide; arsenate co-treatment: none)	thermal stability z-score (potassium arsenate)
THOC5 (UniProt Q13769)	0.945	0.187	0.536
THOC6 (UniProt Q86W42)	0.337	0.402	0.429
THOC7 (UniProt Q6I9Y2)	0.192	0.175	-0.26
THOP1 (UniProt P52888)	-0.0659	-0.212	-0.915
THRAP3 (UniProt Q9Y2W1)	1.84	0.438	-0.985
THTPA (UniProt Q9BU02)	0.32	-0.0368	0.53
THUMPD1 (UniProt Q9NXG2)	0.166	0.155	3.08
THUMPD2 (UniProt Q9BTF0)	-0.2	-0.425	0.0998
THUMPD3 (UniProt Q9BV44)	0.0954	-0.489	0.37
THYN1 (UniProt Q9P016)	0.476	0.00625	-0.603
TIA1 (UniProt P31483)	-0.376	0.000117	-1.08
TIAL1 (UniProt Q01085)	-0.227	0.0243	-1.23
TICAM1 (UniProt Q8IUC6)	-0.187	-0.204	-0.325
TIFA (UniProt Q96CG3)	-0.71	-0.0546	-0.879
TIGAR (UniProt Q9NQ88)	-1.91	0.677	0.655
TIMELESS (UniProt Q9UNS1)	-0.244	-0.0831	-0.498
TIMM13 (UniProt Q9Y5L4)	1.99	1.56	-0.381
TIMM17A (UniProt Q99595)	0.133	-0.417	0.164

Target	thermal stability z-score (lipoamide; [1])	thermal stability z-score (lipoamide; arsenate co-treatment: none)	thermal stability z-score (potassium arsenate)
TIMM17B (UniProt O60830)	0.0946	-0.362	0.173
TIMM21 (UniProt Q9BVV7)	0.0115	0.000788	0.255
TIMM23 (UniProt O14925)	0.248	-0.124	0.0795
TIMM44 (UniProt O43615)	0.147	0.291	-0.65
TIMM50 (UniProt Q3ZCQ8)	-0.412	-0.179	-0.391
TIMMDC1 (UniProt Q9NPL8)	0.185	-0.271	0.538
TIMP1 (UniProt P01033)	-0.407	-1.02	-0.272
TIMP2 (UniProt P16035)	-0.833	-0.411	0.923
TIPIN (UniProt Q9BVW5)	-0.58	0.146	0.349
TIPRL (UniProt O75663)	-0.215	-0.0559	0.122
TJAP1 (UniProt Q5JTD0)	-1.54	-0.576	-0.0307
TJP1 (UniProt Q07157)	0.078	-0.0866	0.371
TJP2 (UniProt Q9UDY2)	-0.259	-0.231	0.438
TK1 (UniProt P04183)	0.233	0.418	-0.307
TK2 (UniProt O00142)	0.341	0.589	-0.137
TKFC (UniProt Q3LXA3)	0.239	0.23	-0.753
TKT (UniProt P29401)	0.488	0.386	-0.045
TLCD1 (UniProt Q96CP7)	-0.0961	-0.035	0.587

— the supplement of paper PMC12463676, “Small-molecule dissolution of stress granules by redox modulation benefits ALS models” (Nature Chemical Biology, 2025)
